Laboratory results as given in PMC9388731, “Radiosynthesis and First Preclinical Evaluation of the Novel ^11C-Labeled FAP Inhibitor ^11C-FAPI: A Comparative Study of ^11C-FAPIs and (^68Ga) Ga-DOTA-FAPI-04 in a High–FAP-Expression Mouse Model” (Frontiers in Chemistry, 2022).
Where “and” joins values, the source holds several entries; their conditions need not be identical. Identical values can stand only once.

Experiments:
[1] = test system: U87MG tumor xenografts; assay: Biodistribution (ex vivo γ-counting of organs) in U87MG tumor xenograft mice; design: species or system nude mice (female BALB/c nu/nu); conditions: for Tumor uptake: i.v., mean ± SD, n = 3
Experimental: (§1) All animal experimental procedures and protocols were approved by the Institutional Animal Care and Use Committee (Renji Hospital, School of Medicine, Shanghai Jiao Tong University). For subcutaneous models, U87MG cells (2 × 10^6 cells in 100 μl PBS) were implanted into the right flank of female BALB/c nu/nu athymic mice to establish subcutaneous tumor xenografts. For orthotopic xenografts, U87MG cells (0.5 × 10^6 cells in […] PBS) were transplanted into the brains of female BALB/c nude mice (4–6 weeks old). The subcutaneous and orthotopic models were ready for PET imaging 3 weeks after tumor cell inoculation.
U87MG mice were injected with 3.7 MBq of each tracer and sacrificed at different times (30, 60, and 90 min p.i.; n = 3 for each time point). The main organs, including the kidney, intestine, liver, heart, lung, muscle, brain, and tumors, were isolated, weighed, and analyzed. The biodistribution in the [^68Ga] Ga-DOTA-FAPI-04 group (3.7 MBq) with approximately 100 μg of unlabeled DOTA-FAPI-04 was also evaluated for comparison. The radioactivity of the samples was determined using an automated γ-counter (Perkin-Elmer), and the uptake of the radiotracers in different organs/tissues was calculated and presented as percent of injected dose per Gram of tissue (%ID/g, mean ± SD).

[2] = test system: U87MG orthotopic xenograft glioma; assay: Small-animal PET in the U87MG orthotopic xenograft glioma model; assay type: in vivo, nude mice (female BALB/c); conditions: 60 min p.i., n = 3
Experimental: as §1
Ga-DOTA-FAPI-04 were diluted or concentrated to a 74 MBq/mL. […] Ga-DOTA-FAPI-04 was intravenously injected into U87MG tumor-bearing nude mice (n = 3 for each group). For static PET imaging, the acquisition times were 30, 60, and 90 min postinjection (p.i.). Each static scan consists of CT scan and PET scan. The CT scan time is 20 s and the PET scan time is 10 min. […] Regions of interest (ROIs) in the tumor, liver, heart, kidney, brain, and lung were counted on the PET images to quantify the radioactive signals. […] PET data were reconstructed with three-dimensional ordered-subset expectation-maximization (3D-OSEM) algorithm with Monte-Carlo based accurate detector model and subsequently was analyzed with Avatar 1.2 software (Pingseng China).

[3] = In vitro stability in PBS at 37°C (radio-HPLC); assay type: physicochemical; conditions: 150 min
Experimental: The radiochemical purities were analyzed by a radio-HPLC column (C18-B, 250 mm × 4.6 mm, 5 μm, 120 Å, Morhchem Technologies Inc., United States) (details presented in the Supplementary Material).

[4] = test system: FAP; design: method as in PMID 32222810; conditions: ref (3); cited from earlier work
[5] = 60 min p.i. (time taken from the order of the sentence)
[6] = 90 min p.i. (time taken from the order of the sentence)
[7] = time printed as 'at 60 and 90 min p.i.', one value per probe

Row | SMILES | Brain uptake ([1]; 30 min p.i.) [%ID/g] | Heart uptake ([1]; 30 min p.i.) [%ID/g] | Intestine uptake ([1]; 30 min p.i.) [%ID/g] | Kidney uptake ([1]; 30 min p.i.) [%ID/g] | Liver uptake ([1]; 30 min p.i.) [%ID/g] | Lung uptake ([1]; 30 min p.i.) [%ID/g] | Muscle uptake ([1]; 30 min p.i.) [%ID/g] | T/L ratio (tumor/liver) ([1]; 30 min p.i.) | tumor-to-muscle (T/M) ratio ([1]; 30 min p.i.) | Tumor uptake ([1]; 30 min p.i.) [%ID/g] | Brain uptake ([1]; 60 min p.i.) [%ID/g] | Heart uptake ([1]; 60 min p.i.) [%ID/g] | Intestine uptake ([1]; 60 min p.i.) [%ID/g] | Kidney uptake ([1]; 60 min p.i.) [%ID/g] | Liver uptake ([1]; 60 min p.i.) [%ID/g] | Lung uptake ([1]; 60 min p.i.) [%ID/g] | Muscle uptake ([1]; 60 min p.i.) [%ID/g] | T/L ratio (tumor/liver) ([1]; 60 min p.i.) | tumor-to-muscle (T/M) ratio ([1]; 60 min p.i.) | T/K ratio (tumor/kidney) [1, 5] | other results
1 | [11CH3]Oc1ccc2nccc(C(=O)NCC(=O)N3CC(F)(F)C[C@H]3C#N)c2c1 [^11C-RJ1102, (S)-N-(2-(2-cyano-4,4-difluoropyrrolidin-1-yl)-2-oxoethyl)-6-(methoxy-11C) quinoline-4-carboxamide] | 0.16 ± 0.01 | 0.78 ± 0.10 | 5.08 ± 0.24 | 1.84 ± 0.01 | 2.87 ± 0.12 | 0.65 ± 0.02 | 0.74 ± 0.03 | 0.60 ± 0.03 | 2.30 ± 0.32 and 2.30 ± 0.02 | 1.71 ± 0.08 | 0.07 ± 0.03 | 0.26 ± 0.01 | 2.63 ± 0.28 | 0.48 ± 0.02 | 1.00 ± 0.05 | 0.25 ± 0.03 | 0.20 ± 0.01 | 0.62 ± 0.03 | 3.10 ± 0.14 | 1.29 ± 0.07 | Tumor uptake ([1]; 60 min p.i.): 0.62 ± 0.06 %ID/g; Brain uptake ([1]; 90 min p.i.): 0.02 ± 0.01 %ID/g; Heart uptake ([1]; 90 min p.i.): 0.07 ± 0.01 %ID/g; Intestine uptake ([1]; 90 min p.i.): 1.10 ± 0.25 %ID/g; Kidney uptake ([1]; 90 min p.i.): 0.13 ± 0.02 %ID/g; Liver uptake ([1]; 90 min p.i.): 0.29 ± 0.02 %ID/g; Lung uptake ([1]; 90 min p.i.): 0.06 ± 0.01 %ID/g; Muscle uptake ([1]; 90 min p.i.): 0.04 ± 0.00 %ID/g; T/L ratio (tumor/liver) ([1]; 90 min p.i.): 0.62 ± 0.03; tumor-to-muscle (T/M) ratio ([1]; 90 min p.i.): 4.50 ± 0.50; T/K ratio (tumor/kidney) [1, 6]: 1.39 ± 0.06; Tumor uptake ([1]; 90 min p.i.): 0.18 ± 0.02 %ID/g; T/K ratio (tumor/kidney) [1, 7]: 0.93 ± 0.04; tumor accumulation (small-animal PET) [2]: 0.22 ± 0.02 ID%/g; radioactive purity after incubation in PBS (in vitro stability) [3]: over 99%
2 | COc1ccc2nccc(C(=O)NCC(=O)N3CC(F)(F)C[C@H]3C#N)c2c1 [compound 4, (S)-N-(2-(2-cyano-4,4-difluoropyrrolidin-1-yl)-2-oxoethyl)-6-(methoxy)quinoline-4-carboxamide] | – | – | – | – | – | – | – | – | – | – | – | – | – | – | – | – | – | – | – | – | IC50 [4]: 8.5 ± 0.9 nM
3 | COc1ccc2nccc(C(=O)NCC(=O)N3CCC[C@H]3C#N)c2c1 [^11C-RJ1101, (S)-N-(2-(2-cyanopyrrolidin-1-yl)-2-oxoethyl)-6-(methoxy-11C)quinoline-4-carboxamide] | 0.18 ± 0.02 | 0.59 ± 0.01 | 4.95 ± 0.31 | 1.28 ± 0.06 | 7.20 ± 1.71 | 0.56 ± 0.08 | 0.42 ± 0.04 | 0.19 ± 0.03 | 3.19 ± 0.06 | 1.34 ± 0.10 | 0.02 ± 0.00 | 0.06 ± 0.01 | 2.72 ± 0.45 | 0.17 ± 0.02 | 0.24 ± 0.03 | 0.05 ± 0.01 | 0.06 ± 0.01 | 0.63 ± 0.04 | 2.26 ± 0.25 | 0.89 ± 0.05 | Tumor uptake ([1]; 60 min p.i.): 0.15 ± 0.01 %ID/g; Heart uptake ([1]; 90 min p.i.): 0.01 ± 0.00 %ID/g; Intestine uptake ([1]; 90 min p.i.): 0.67 ± 0.02 %ID/g; Kidney uptake ([1]; 90 min p.i.): 0.03 ± 0.00 %ID/g; Liver uptake ([1]; 90 min p.i.): 0.06 ± 0.00 %ID/g; Lung uptake ([1]; 90 min p.i.): 0.01 ± 0.00 %ID/g; Muscle uptake ([1]; 90 min p.i.): 0.01 ± 0.00 %ID/g; T/L ratio (tumor/liver) ([1]; 90 min p.i.): 0.34 ± 0.06; tumor-to-muscle (T/M) ratio ([1]; 90 min p.i.): 2.00 ± 0.00; T/K ratio (tumor/kidney) [1, 6]: 0.67 ± 0.01; Tumor uptake ([1]; 90 min p.i.): 0.02 ± 0.00 %ID/g; T/K ratio (tumor/kidney) [1, 7]: 1.05 ± 0.03; radioactive purity after incubation in PBS (in vitro stability) [3]: over 99%
